Results on 17 compounds are retold here after publication PMC8920097, “Prediction of hERG inhibition of drug discovery compounds using biomimetic HPLC measurements” (ADMET & DMPK, 2021).

One may read the chromatographic logD as a lipophilicity value derived from retention on a column. For orientation: chromatographic logP means a lipophilicity value derived from retention on a column.

Molecules are shown by their SMILES. Read-outs that look alike come from different tables or passages of the source.

Details of data set [1]: method as in doi:10.5599/admet.5.1.373. To be noted: calibration set; predetermined by isocratic measurements; cited from earlier work.
Details of data set [2]: method as in PMID 11472245. Particulars: cited from earlier work.
The target in data set [3] is human serum albumin (HSA) (Homo sapiens, UniProt P02768). Nature of the data set: Protein binding on Chiralpak HSA HPLC column. Particulars: pH 7.4, Chiralpak HSA. The procedure: The measurement of the biomimetic properties of the available drugs was conducted in our laboratories. Generic gradient HPLC methods were used to determine the chromatographic hydrophobicity Index (CHI) using mobile phases at three different pH values. The protein binding of the compounds was measured using immobilised human serum albumin (HSA), and alpha-1-acid-glycoprotein (AGP) stationary phases. The phospholipid-binding was measured using the immobilised artificial membrane (IAM) stationary phase. The aim was to establish relationships between the cardiotoxicity potential and the biomimetic binding properties of the drugs and to evaluate their predictive performance.

In data set [4] the test system is alpha-1-acid-glycoprotein (AGP). Nature of the data set: Protein binding on Chiralpak AGP HPLC column. To be noted: pH 7.4, Chiralpak AGP. The gist of the method: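 Binding measured by gradient HPLC on immobilised HSA or AGP stationary phases.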
Data set [5] is described as follows: Phospholipid binding at pH 7.4 on IAM PC.DD2 HPLC column. The data set is classed as physicochemical. Details: key to CHI IAM: approximates acetonitrile concentration (%) in mobile phase at elution. To be noted: for CHI IAM: pH 7.4; for log k IAM: pH 7.4, derived from CHI IAM by equation 1. The gist of the method:
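Gradient retention on IAM PC.DD2 column (100 x 4.6 mm) with 50 mM ammonium acetate pH 7.4, 1.5 mL/min, 6 min cycle. Retention calibrated against acetophenone homologues to give CHI IAM (approximate acetonitrile concentration at elution), converted to log k IAM by equation.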

The nature of data set [6]: CHI lipophilicity by gradient reversed-phase HPLC (Gemini NX-C-18). Particulars: for chromatographic logD: Gemini NX-C-18 reversed-phase HPLC column, pH 7.4; for chromatographic logP: reversed-phase HPLC, Gemini NX-C-18 column (50 x 3 mm, 5 µm). The method, boiled down:
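Calibrated gradient retention times came from a 50 x 3 mm, 5 μm C-18 column run with a 0–100% linear acetonitrile gradient. A standard compound set converted these times to CHI values.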

Another data set deals with hERG channel. To be noted: cited from earlier work.
A short description of data set [7]: Charge character of the drugs at pH 7.4. The data set is classed as physicochemical.
Where [8] appears, read: literature values, mean where several reported, molar.

human serum albumin (HSA), sequence (P02768 25-609): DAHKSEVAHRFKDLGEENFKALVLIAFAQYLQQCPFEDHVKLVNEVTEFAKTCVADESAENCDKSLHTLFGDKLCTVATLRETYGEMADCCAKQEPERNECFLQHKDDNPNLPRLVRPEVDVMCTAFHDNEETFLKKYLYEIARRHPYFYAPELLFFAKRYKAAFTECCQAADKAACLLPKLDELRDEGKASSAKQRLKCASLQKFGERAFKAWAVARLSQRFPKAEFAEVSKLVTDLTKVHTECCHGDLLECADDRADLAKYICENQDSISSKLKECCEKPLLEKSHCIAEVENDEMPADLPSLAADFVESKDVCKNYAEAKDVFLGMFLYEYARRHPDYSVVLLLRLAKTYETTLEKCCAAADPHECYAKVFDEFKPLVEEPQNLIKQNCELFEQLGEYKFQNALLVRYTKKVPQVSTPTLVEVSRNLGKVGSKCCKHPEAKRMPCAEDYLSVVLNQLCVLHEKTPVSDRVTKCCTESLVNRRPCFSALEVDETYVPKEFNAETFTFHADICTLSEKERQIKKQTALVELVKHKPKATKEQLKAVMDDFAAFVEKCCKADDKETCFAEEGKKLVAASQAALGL

Consider `CC(=O)Nc1ccccc1` [Acetanilide], for which the “CHI IAM” value in data set [1] is 11.5.
Regarding `CC(=O)c1ccccc1` [Acetophenone], in data set [1], the “CHI IAM” value is recorded as 17.2. Further, in data set [2] (calibration set), the “CHI at pH 2.6” value is given as 64.1, the “CHI at pH 7.4” value is on record as 65.1 and the “CHI at pH 10.5” value is reported as 64.1.
Take `c1ccc2[nH]cnc2c1` [Benzimidazole]: in data set [2] (calibration set), the “CHI at pH 2.6” value was 6.3, the “CHI at pH 7.4” value is 34.3 and the “CHI at pH 10.5” value is listed as 30.6.
Regarding `CCCC(=O)c1ccccc1` [Butyrophenone], the “CHI IAM” value in data set [1] was 32.0. For the same compound, in data set [2] (calibration set), the “CHI at pH 2.6” value was 87.3, the “CHI at pH 7.4” value is reported as 87.5 and the “CHI at pH 10.5” value is on record as 87.3.
As to `COc1cc2c(c(OC)c1OC)-c1ccc(OC)c(=O)cc1[C@@H](NC(C)=O)CC2` [Colchicine], in data set [2], the “CHI at pH 2.6” value is given as 43.9, the “CHI at pH 7.4” value is on record as 45.0 and the “CHI at pH 10.5” value is listed as 43.9.
For `CCCCCCC(=O)c1ccccc1` [Heptanophenone], in data set [1], the “CHI IAM” value is given as 45.7.
Turning to `CCCCCC(=O)c1ccccc1` [Hexanophenone], in data set [1], the “CHI IAM” value is 41.8.
Take `c1ccc2[nH]ccc2c1` [Indole]: in data set [2], the “CHI at pH 2.6” value was 72.1, the “CHI at pH 7.4” value is reported as 71.5 and the “CHI at pH 10.5” value was 72.1.
`CCCCCCCC(=O)c1ccccc1` [Octanophenone]: in data set [1], the “CHI IAM” value is reported as 49.4.
Regarding `c1ccc(-c2nn[nH]n2)cc1` [Phenyl tetrazole], in data set [2] (calibration set), the “CHI at pH 2.6” value is 42.2, the “CHI at pH 7.4” value is recorded as 23.6 and the “CHI at pH 10.5” value is recorded as 16.0.
`Cn1c(=O)c2nc(-c3ccccc3)[nH]c2n(C)c1=O` [Phenyl theophylline]: in data set [2] (calibration set), the “CHI at pH 2.6” value was 51.7, the “CHI at pH 7.4” value is 51.2 and the “CHI at pH 10.5” value was 51.3.
Take `CCC(=O)c1ccccc1` [Propiophenone]: in data set [1], the “CHI IAM” value is listed as 25.9. Also, in data set [2] (calibration set), the “CHI at pH 2.6” value was 77.4, the “CHI at pH 7.4” value was 77.4 and the “CHI at pH 10.5” value is 77.4.
For `CC[C@H]1OC(=O)[C@H](C)[C@@H](O[C@H]2C[C@@](C)(OC)[C@@H](O)[C@H](C)O2)[C@H](C)[C@@H](O[C@@H]2O[C@H](C)C[C@H](N(C)C)[C@H]2O)[C@](C)(O)C[C@@H](C)/C(=N\OCOCCOC)[C@H](C)[C@@H](O)[C@]1(C)O` [Roxithromycin], the “log k HSA” value in data set [3] is -0.07. The “log k AGP” value in data set [4] is on record as 0.60. In data set [5], the “CHI IAM” value is 51.33 and the “log k IAM” value is 2.78. In addition, in data set [6], the chromatographic logD worked out at 1.95 and the chromatographic logP amounted to 3.7. The “hERG pIC50” value in the data set with hERG channel (setting [8]) is 4.44. In addition, in data set [7], the Charge result is “Basic”.
As for `CCOc1ccccc1OCCN[C@H](C)Cc1ccc(OC)c(S(N)(=O)=O)c1` [Tamsulosin], the “log k HSA” value in data set [3] came out at 0.36. Also, the “log k AGP” value in data set [4] was 0.60. For the same compound, in data set [5], the “log k IAM” value came out at 2.00. In data set [6], the chromatographic logD amounted to 1.43 and the chromatographic logP was 2.01. For the same compound, in the data set with hERG channel (setting [8]), the “hERG pIC50” value is 4.89. Besides, the Charge result in data set [7] is “Basic”.
Regarding `Cn1c(=O)c2[nH]cnc2n(C)c1=O` [Theophylline], in data set [2] (calibration set), the “CHI at pH 2.6” value is on record as 17.9, the “CHI at pH 7.4” value is reported as 18.4 and the “CHI at pH 10.5” value is listed as 5.0.
Take `CCCCC(=O)c1ccccc1` [Valerophenone]: the “CHI IAM” value in data set [1] was 37.3. In data set [2] (calibration set), the “CHI at pH 2.6” value was 96.4, the “CHI at pH 7.4” value is given as 96.2 and the “CHI at pH 10.5” value is given as 96.4.
Take `O=C1Cc2cc(CCN3CCN(c4nsc5ccccc45)CC3)c(Cl)cc2N1` [Ziprasidone]: in data set [3], the “log k HSA” value is listed as 1.42. For the same compound, in data set [4], the “log k AGP” value was 1.09. Further, in data set [5], the “CHI IAM” value is 47.92 and the “log k IAM” value is recorded as 2.62. In data set [6], this compound yielded a chromatographic logD of 2.98 and a chromatographic logP of 2.96. The “hERG pIC50” value in the data set on hERG channel is on record as 6.44. For the same compound, the Charge entry in data set [7] is “Weak Base”.
